Test results reported in US20240293367A1, “METHODS OF TREATING DISORDERS WITH A […]” (Cybin IRL Limited, priority 2023, published 2024).
Read-outs that look alike come from different tables or passages of the source.

Assay: Phase I/IIa clinical PK of oral psilocin-d10, plasma, noncompartmental analysis (Cohorts 1-6)
Type: in vivo, human
Details: for AUC(0-t) / AUC(0-inf) / Cmax / half-life / Vd/F / Tmax: human, plasma; for AUC(0-t) / AUC(0-inf) / Cmax / half-life / Vd/F: po; for AUC(0-inf): read-out: AUC0-inf Mean (SD); for half-life: read-out: T1/2 Mean (SD) (converted); for Vd/F: read-out: Vz/F Mean (SD); for Tmax: read-out: Tmax Median
Description: Phase I/IIa, Randomized, Double-Blind, Placebo-Controlled Study which assesses the safety, tolerability, pharmacokinetics, and pharmacodynamics of multiple ascending oral doses of psilocin-d10 in participants with and without MDD (ClinicalTrials.gov Identifier: NCT05385783). All subjects receiving study medication in Cohorts 1-6 received oral psilocin-d10 powder in solution (0.1M citric acid+Tang orange drink, 30 mL dose in a dose cup) and subjects receiving placebo received a similar volume of Tang orange drink without the psilocin-d10 study drug. All subjects receiving study medication in the relative bioavailability (BA) cohort received powder-filled capsules containing psilocin-d10 benzenesulfonate salt by ingestion with approximately 240 mL room temperature water, or oral psilocin-d10 powder in solution (0.1M citric acid+Tang orange drink, 30 mL dose in a dose cup) in a cross-over design. Psilocin-d10 for the powder in solution dosage form was manufactured by Patheon Pharma Services, with an isotopic purity of 79.89%. Psilocin-d10 benzenesulfonate salt for the powder-filled capsule dosage form was manufactured by Patheon Pharma Services, with an isotopic purity of 85.20%.
Cohorts 1, 4, 5, and 6 of the study was comprised of participants with MDD. Cohorts 2, 3, and the relative BA cohort of the study were comprised of normal healthy volunteers (NHV). […] MDD participants had been on a stable dose of antidepressant medication for at least one month prior to screening with an inadequate response to that antidepressant medication as judged by the Investigator, and continued to receive their prescribed antidepressant throughout the course of the study.
Cohort 1. For Cohort 1, 2 sentinel subjects were randomized and dosed, including 1 subject who received a psilocin-d10 1 mg oral dose and 1 subject who received a placebo dose. After the sentinel subjects were dosed, an additional 2 subjects were dosed, including a replacement subject for one of the sentinel subjects who withdrew consent and one additional subject. In total, four Cohort 1 subjects received a first dose of study medication on Day 1, and 3 subjects received a second dose of study medication on Day 22. For the first dose, 2 subjects received an active psilocin-d10 1 mg dose and 2 subjects received placebo. For the second dose, 3 subjects received an active psilocin-d10 1 mg dose.
Cohort 2. For Cohort 2, 4 subjects were randomized and dosed on Day 1 (2 subjects on one day, 2 subjects on the next day), including 3 subjects who received a psilocin-d10 3 mg oral dose and 1 subject who received a placebo dose. These same 4 subjects were again dosed on Day 8 (2 subjects on one day, 2 subjects on the next day), with all 4 subjects receiving a psilocin-d10 8 mg oral dose (note the actual washout was 11 days between doses).
Cohort 3. For Cohort 3 Day 1, 4 subjects were randomized and dosed on Day 1 (2 subjects on one day, 2 subjects on the next day), including 3 subjects who received a psilocin-do 8 mg oral dose and 1 subject who received a placebo dose. […] Another subject was dosed and left the study after the 2-hour PK sampling and has limited PK samples available for analysis from 0 to 2 hours—this subject's PK data has thus been excluded from the analysis presented hereinafter. For Cohort 3 Day 8, 3 subjects were dosed on Day 8 with a psilocin-d10 10 mg dose (2 sentinel subjects were dosed on one day, 1 non-sentinel subject was dosed on the next day).
Cohorts 4 and 5. For Cohorts 4 and 5, 12 participants each (24 participants total) were randomized in a 3:1 ratio to receive 12 mg of psilocin-d10 or matched placebo in a single dosing session on Day 1. Following a 21-day interval, all participants received a dose of 12 mg psilocin-d10 on Day 22 (second dose for participants originally randomized to psilocin-d10, first dose for participants randomized to placebo), and were followed to Day 42.
Cohort 6. […]

[1] = 8 mg, 8 mg oral, Cohorts 2 and 3 NHV, pooled
[2] = 10 mg, 10 mg oral, Cohort 3 NHV, Day 8
[3] = 12 mg, 12 mg oral, Cohort 4 MDD, Day 1 and Day 22
[4] = 12 mg, 12 mg oral, Cohort 5 MDD, Day 1 and Day 22
[5] = 12 mg, 12 mg oral, Cohorts 4 and 5 MDD, Day 1 and Day 22
[6] = 16 mg, 16 mg oral, Cohort 6 MDD, all subjects incl. 3 with emesis

Work on `[2H]C([2H])([2H])N(C([2H])([2H])[2H])C([2H])([2H])C([2H])([2H])c1c[nH]c2cccc(O)c12` [psilocin-d10, 3-(2-(bis(methyl-d3)amino)ethyl-1,1,2,2-d4)-1H-indol-4-ol] yielded an AUC(0-t) (8 mg, 8 mg oral, Cohorts 2 and 3 NHV, pooled, 2 subjects excluded, read-out: AUC0-24 Mean (SD)) of 84 ng·h/mL, an AUC(0-inf) [1] of 87.8 ng·h/mL and an AUC(0-t) (8 mg, 8 mg oral, Cohorts 2 and 3 NHV, pooled, read-out: AUClast Mean (SD)) of 84 ng·h/mL. For the same molecule, the Cmax (8 mg, 8 mg oral, Cohorts 2 and 3 NHV, pooled, read-out: Cmax Median) was 17.1 ng/mL, the half-life [1] was 5.51 h and the Vd/F [1] was 744 L. It also gave an AUC(0-t) (10 mg, 10 mg oral, Cohort 3 NHV, Day 8, read-out: AUC0-24 Mean (SD)) of 101 ng·h/mL, an AUC(0-inf) [2] of 106 ng·h/mL and an AUC(0-t) (10 mg, 10 mg oral, Cohort 3 NHV, Day 8, read-out: AUClast Mean (SD)) of 101 ng·h/mL. It also gave a Cmax (10 mg, 10 mg oral, Cohort 3 NHV, Day 8, read-out: Cmax Mean (SD)) of 13.4 ng/mL, a Cmax (10 mg, 10 mg oral, Cohort 3 NHV, Day 8, read-out: Cmax Median) of 10.9 ng/mL and a half-life [2] of 5.12 h. The Vd/F [2] was 758 L, the AUC(0-t) (12 mg, 12 mg oral, Cohort 4 MDD, Day 1 and Day 22, read-out: AUC0-24 Mean (SD)) was 155 ng·h/mL and the AUC(0-inf) [3] was 165 ng·h/mL. It also gave an AUC(0-t) (12 mg, 12 mg oral, Cohort 4 MDD, Day 1 and Day 22, read-out: AUClast Mean (SD)) of 154 ng·h/mL, a Cmax (12 mg, 12 mg oral, Cohort 4 MDD, Day 1 and Day 22, read-out: Cmax Mean (SD)) of 19.7 ng/mL and a Cmax (12 mg, 12 mg oral, Cohort 4 MDD, Day 1 and Day 22, read-out: Cmax Median) of 18.6 ng/mL. For the same molecule, the half-life [3] was 5.62 h, the Vd/F [3] was 668 L and the AUC(0-t) (12 mg, 12 mg oral, Cohort 5 MDD, Day 1 and Day 22, read-out: AUC0-24 Mean (SD)) was 137 ng·h/mL. For the same molecule, the AUC(0-inf) [4] was 144 ng·h/mL, the AUC(0-t) (12 mg, 12 mg oral, Cohort 5 MDD, Day 1 and Day 22, read-out: AUClast Mean (SD)) was 137 ng·h/mL and the Cmax (12 mg, 12 mg oral, Cohort 5 MDD, Day 1 and Day 22, read-out: Cmax Mean (SD)) was 16.9 ng/mL. For the same molecule, the Cmax (12 mg, 12 mg oral, Cohort 5 MDD, Day 1 and Day 22, read-out: Cmax Median) was 14.8 ng/mL, the half-life [4] was 5.08 h and the Vd/F [4] was 666 L. It also gave an AUC(0-t) (12 mg, 12 mg oral, Cohorts 4 and 5 MDD, Day 1 and Day 22, read-out: AUC0-24 Mean (SD)) of 146 ng·h/mL, an AUC(0-inf) [5] of 155 ng·h/mL and an AUC(0-t) (12 mg, 12 mg oral, Cohorts 4 and 5 MDD, Day 1 and Day 22, read-out: AUClast Mean (SD)) of 145 ng·h/mL. It also gave a Cmax (12 mg, 12 mg oral, Cohorts 4 and 5 MDD, Day 1 and Day 22, read-out: Cmax Mean (SD)) of 18.2 ng/mL, a Cmax (12 mg, 12 mg oral, Cohorts 4 and 5 MDD, Day 1 and Day 22, read-out: Cmax Median) of 16.2 ng/mL and a half-life [5] of 5.35 h. For the same molecule, the Vd/F [5] was about 667 L, the Cmax (16 mg, 16 mg oral, Cohort 6 MDD, Day 1 and Day 22, all subjects incl. 3 with emesis, read-out: Cmax Mean (SD)) was 19.8 ng/mL and the AUC(0-t) (16 mg, 16 mg oral, Cohort 6 MDD, all subjects incl. 3 with emesis, read-out: AUC0-24 Mean (SD)) was 155 ng·h/mL. The AUC(0-inf) [6] was 161 ng·h/mL, the AUC(0-t) (16 mg, 16 mg oral, Cohort 6 MDD, all subjects incl. 3 with emesis, read-out: AUClast Mean (SD)) was 151 ng·h/mL and the Cmax (16 mg, 16 mg oral, Cohort 6 MDD, all subjects incl. 3 with emesis, read-out: Cmax Median) was 17.4 ng/mL. It also gave a half-life [6] of 5.57 h, a Vd/F [6] of 986 L and a Tmax (1 mg oral, Cohort 1 MDD, Day 1 and Day 22 pooled) of 1 h. It also gave a Tmax (3 mg oral, Cohort 2 NHV, Day 1) of 2 h, a Tmax (8 mg oral, Cohorts 2 and 3 NHV, pooled) of 2 h and a Tmax (10 mg oral, Cohort 3 NHV, Day 8) of 1 h. The Tmax (12 mg oral, Cohorts 4 and 5 MDD, Day 1 and Day 22) was 1.03 h, the Tmax (16 mg oral, Cohort 6 MDD, all subjects incl. 3 with emesis) was 1.03 h and the “mean clearance (CL/F), on average” value (range of means, 1 to 10 mg doses) was 85.22 to 104.7 L/h.
